The text below walks through data of article PMC4660985 (Biochemistry, 2015).

The target of data set [1] is T1, CYP125A4 (Mycolicibacterium smegmatis, UniProt A0QY38).
T1 sequence (A0QY38 1-430): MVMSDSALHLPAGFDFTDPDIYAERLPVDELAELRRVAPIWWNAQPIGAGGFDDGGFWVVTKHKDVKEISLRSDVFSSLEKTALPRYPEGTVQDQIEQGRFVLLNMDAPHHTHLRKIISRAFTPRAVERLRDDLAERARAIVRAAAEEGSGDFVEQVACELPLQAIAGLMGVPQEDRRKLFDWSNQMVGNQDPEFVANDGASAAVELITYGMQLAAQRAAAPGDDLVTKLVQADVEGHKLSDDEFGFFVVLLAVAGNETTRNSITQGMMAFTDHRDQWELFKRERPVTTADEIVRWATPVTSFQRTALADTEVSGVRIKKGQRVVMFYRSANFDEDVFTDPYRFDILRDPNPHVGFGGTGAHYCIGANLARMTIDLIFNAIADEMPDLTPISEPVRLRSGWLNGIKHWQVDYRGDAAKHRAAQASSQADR
The data set can be described thus: UV-vis spectral titration. The format is binding.

A further data set concerns the target CYP125A3 (Mycolicibacterium smegmatis, UniProt A0R4Y3). Kind of data set: UV-vis spectral titration. Type of data set: binding.
The test system of data set [2] is CC(C)CCC[C@@H](C)[C@H]1CC[C@H]2[C@@H]3CCC4=CC(=O)CC[C@]4(C)[C@H]3CC[C@]12C. Kind of data set: steady-state turnover of purified enzyme, HPLC. The format is biochemical, Mycolicibacterium smegmatis. Conditions: heme.
Data set [3] concerns CC(C)CCC[C@@H](C)[C@H]1CC[C@H]2[C@@H]3[C@H](O)CC4=CC(=O)CC[C@]4(C)[C@H]3CC[C@]12C. Kind of data set: steady-state turnover of purified enzyme, HPLC. Type of data set: biochemical, Mycolicibacterium smegmatis. Particulars: heme.
For data set [4], the target named is T1, CYP125A4. Kind of data set: UV-vis partial type I spectral shift. Type of data set: binding.

Sequence of CYP125A3 (A0R4Y3 whole entry): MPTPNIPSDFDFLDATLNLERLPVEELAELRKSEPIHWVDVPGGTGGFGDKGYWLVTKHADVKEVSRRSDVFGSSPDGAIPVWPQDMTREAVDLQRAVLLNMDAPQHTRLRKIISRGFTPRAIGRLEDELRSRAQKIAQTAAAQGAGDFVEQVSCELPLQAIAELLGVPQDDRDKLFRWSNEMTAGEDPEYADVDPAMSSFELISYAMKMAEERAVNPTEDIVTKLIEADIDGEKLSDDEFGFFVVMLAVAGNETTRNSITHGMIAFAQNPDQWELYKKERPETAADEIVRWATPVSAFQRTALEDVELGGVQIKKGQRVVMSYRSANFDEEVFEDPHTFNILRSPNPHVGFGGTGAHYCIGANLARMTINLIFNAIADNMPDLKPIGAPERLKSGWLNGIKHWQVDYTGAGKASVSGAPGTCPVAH

Consider `CC(C)CCC[C@@H](C)[C@H]1CC[C@H]2[C@@H]3[C@H](O)C=C4C[C@@H](O)CC[C@]4(C)[C@H]3CC[C@]12C` [7α-hydroxycholesterol], for which the Kd (as a rule, the equilibrium constant for the complex coming apart) on CYP125A4 [1] came out at 8.7 ± 0.5 µM; at CYP125A3 it was 32.9 ± 4.7 µM.

As to “CYP125A3 W83Y (Mycolicibacterium smegmatis MC2 155; W83Y)”, the Km (usually the substrate concentration at which the rate is half of its maximum) in data set [2] worked out at 24.1 ± 7.8 µM.

In the case of “CYP125A4 Y87W (Mycolicibacterium smegmatis MC2 155; Y87W)”, in data set [3], the Km came to 5.1 ± 1.3 µM.

For `CC(C)CCC[C@@H](C)[C@H]1CC[C@H]2[C@@H]3CC=C4C[C@@H](O)CC[C@]4(C)[C@H]3CC[C@]12C` [cholesterol], the “UV-vis partial type I spectral shift; C-26 oxidation by HPLC” value at CYP125A4 [4] was “Addition of cholesterol or 4-cholesten-3-one did induce a partial shift to the type I high-spin species”.
